Usually EC50 stands for the concentration that produces a half-maximal response.

In data set [1] the test system is HBV AD38 viral particles in HepG2 cell line overexpressing NTCP. Description: HBV DNA Quantification Assay. Format: cell-based. The conditions noted are these: Hepatitis B virus, HepG2, 120 h, HBV-infected HepG2-NTCP cells, 5 days incubation, HBV DNA in culture supernatant (QuantiGene 2.0); geometric mean of a minimum of four determinations. As for the experimental part: HBV DNA Quantification Assay
A HepG2 cell line overexpressing the HBV virus attachment receptor sodium-taurocholate cotransporting polypeptide (NTCP) was grown to confluency in DMEM growth medium, Dulbecco's Modified Eagle Medium without sodium pyruvate (Life Technologies, Rockville, Md.) supplemented with 10% FBS (Thermo Scientific, Waltham, Md.), 1% penicillin/streptomycin (Life Technologies, Rockville, Md.) and 2 mM L-glutamine (Life Technologies, Rockville, Md.) in T175 flasks. Cells were infected with HBV AD38 viral particles (Texcell, Frederick, USA) at 4000 genome equivalents per cell. After allowing viral infection to take place for 4 days, the infected cells were harvested from the flasks by trypsinization, washed twice with OptiMEM (Life Technologies, Rockville, Md.) and re-suspended in DMEM containing 2% FBS and 1% DMSO at a density of 0.25E6 cells/ml. Infected cells were seeded on 384 well collagen coated plates (Greiner, Austria) at a density of 20,000 cells/well containing serially diluted compounds of the present disclosure or DMSO (0.5%) in a final volume of 80 μl. The assay plates were incubated for a period of 5 days and the antiviral activity of the test compounds were assayed by detecting the presence of HBV DNA in the culture supernatant using the QuantiGene™ 2.0 nucleic acid quantification kit (Affymetrix, Santa Clara, Calif.).
The culture supernatant was harvested and treated with lysis buffer containing Proteinase K (Affymetrix, Santa Clara, Calif.). The supernatant was incubated with HBV viral DNA specific probes (Affymetrix, Santa Clara, Calif.) for 30 minutes at 55° C. This was followed by addition of 0.2M NaOH for 30 minutes at room temperature to denature the DNA, followed by addition of Neutralization buffer (Affymetrix, Santa Clara, Calif.). The resulting lysed and neutralized supernatant was then added to QuantiGene™ 2.0 384 well plates coated with capture oligonucleotides and incubated overnight at 55° C. The HBV specific probe set consists of Capture Extender oligonucleotides (CE's) and blocking probes. Following the overnight incubation, the wells were incubated for one hour sequentially with a Pre-Amplifier, Amplifier and Labeled probes conjugated to alkaline phosphatase with a wash step between incubations. After the final wash step, the alkaline phosphatase substrate (Luminol APS5) was added and the resulting luminescence signal was read in an EnVision Multilabel Plate Reader (PerkinElmer, Santa Clara, Calif.). The EC50 values were calculated from the fit of the dose—response curves to a four-parameter equation. All EC50 values represent geometric mean values of a minimum of four determinations.

The nature of data set [2]: Hepatic Stability Assay (in vitro half-life method). The conditions noted are these: pooled cryopreserved hepatocytes, 37° C., 1×10^6 cells/mL, 0-6 hours, LC-MS/MS, 39.5 hours is the maximum detectable half life, read-out: t½ (converted). More on the design: dose or concentration left out as unconfirmed. Format: in vitro ADME. In a few lines: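 Pooled cryopreserved hepatocytes (1×10^6 cells/mL) incubated with compound at […] test concentration, 37° C.; samples at 0, 1, 3 and 6 h quantified by LC-MS/MS. Half-life from rate of compound disappearance, scaled to predicted hepatic clearance via well-stirred model.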

With `Cc1c(C(=O)C(=O)NC2(C(=O)N3CCC34COC4)CC(F)(F)C2)c2n(c1C(=O)Nc1ccc(F)c(Cl)c1)CCC2` [Example 11, N-(3-chloro-4-fluorophenyl)-7-(2-((3,3-difluoro-1-(6-oxa-1-azaspiro[3.3]heptane-1-carbonyl)cyclobutyl)amino)-2-oxoacetyl)-6-methyl-2,3-dihydro-1H-pyrrolizine-5-carboxamide], the EC50 in data set [1] came to 7.7 nM. Moreover, the half-life in data set [2] was 0.7 h.

Take `Cc1c(C(=O)C(=O)NC2(c3nncs3)CC2)c2n(c1C(=O)Nc1ccc(F)c(Cl)c1)CCC2` [Example 12, 7-(2-((1-(1,3,4-thiadiazol-2-yl)cyclopropyl)amino)-2-oxoacetyl)-N-(3-chloro-4-fluorophenyl)-6-methyl-2,3-dihydro-1H-pyrrolizine-5-carboxamide]: the midpoint of the response in data set [1], the EC50, lay at 5 nM. In addition, in data set [2], the half-life was 6.4 h.

As for `Cc1c(C(=O)C(=O)NC2(C(=O)N3CC4(C3)CS(=O)(=O)C4)CC(F)(F)C2)c2n(c1C(=O)Nc1ccc(F)c(Cl)c1)CCC2` [Example 13, N-(3-chloro-4-fluorophenyl)-7-(2-((1-(2,2-dioxido-2-thia-6-azaspiro[3.3]heptane-6-carbonyl)-3,3-difluorocyclobutyl)amino)-2-oxoacetyl)-6-methyl-2,3-dihydro-1H-pyrrolizine-5-carboxamide], the EC50 in data set [1] is 252 nM. Further, in data set [2], the half-life was 16.4 h.

`Cc1c(C(=O)C(=O)NC2(C(=O)N3CC(F)C3)CC(F)(F)C2)c2n(c1C(=O)Nc1ccc(F)c(Cl)c1)CCC2` [Example 14, N-(3-chloro-4-fluorophenyl)-7-(2-((3,3-difluoro-1-(3-fluoroazetidine-1-carbonyl)cyclobutyl)amino)-2-oxoacetyl)-6-methyl-2,3-dihydro-1H-pyrrolizine-5-carboxamide]: a half-maximal response in data set [1] (EC50) required 8.8 nM. Further, the half-life in data set [2] is 2.1 h.

In data set [1], `CNC(=O)C1(NC(=O)C(=O)c2c(C)c(C(=O)Nc3ccc(F)c(Cl)c3)n3c2C[C@@H](O)C3)CC(F)(F)C1` [Example 16, (R)—N-(3-chloro-4-fluorophenyl)-7-(2-((3,3-difluoro-1-(methylcarbamoyl)cyclobutyl)amino)-2-oxoacetyl)-2-hydroxy-6-methyl-2,3-dihydro-1H-pyrrolizine-5-carboxamide] returned an EC50 of 456 nM. In addition, the half-life in data set [2] is 11.8 h.

In data set [1], `CNC(=O)C1(NC(=O)C(=O)c2c(C)c(C(=O)Nc3ccc(F)c(C#N)c3)n3c2CCC3C)CC(F)(F)C1` (stereo not shown) [Example 19, N-(3-cyano-4-fluorophenyl)-7-(2-((3,3-difluoro-1-(methylcarbamoyl)cyclobutyl)amino)-2-oxoacetyl)-3,6-dimethyl-2,3-dihydro-1H-pyrrolizine-5-carboxamide] registered a half-maximal effective concentration (EC50) of 167 nM. The half-life in data set [2] was 18.3 h.

Consider `Cc1c(C(=O)C(=O)NC2(C)CS(=O)(=O)C2)c2n(c1C(=O)Nc1ccc(F)c(Cl)c1)CCC2` [Example 21, N-(3-chloro-4-fluorophenyl)-6-methyl-7-(2-((3-methyl-1,1-dioxidothietan-3-yl)amino)-2-oxoacetyl)-2,3-dihydro-1H-pyrrolizine-5-carboxamide], for which a half-maximal effect in data set [1] (EC50) was put at 20.1 nM. In data set [2], the half-life was 17.1 h.

In turn, `Cc1c(C(=O)C(=O)NC2(C(=O)N3CC4(COC4)C3)CC(F)(F)C2)c2n(c1C(=O)Nc1ccc(F)c(Cl)c1)CCC2` [Example 27, N-(3-chloro-4-fluorophenyl)-7-(2-((3,3-difluoro-1-(2-oxa-6-azaspiro[3.3]heptane-6-carbonyl)cyclobutyl)amino)-2-oxoacetyl)-6-methyl-2,3-dihydro-1H-pyrrolizine-5-carboxamide] had an EC50 in data set [1] of 32.3 nM. In addition, the half-life in data set [2] is 0.9 h.
